From patent US10851064B2, “ACSS2 inhibitors and methods of use thereof” (METABOMED LTD., priority 2017, dated 2020)
Values joined by “and” are separate entries in the source; they are usually repeats but may differ in a detail not shown here. Equal entries are not always repeated.

Experiments:
ACSS2 [1] = target: T1, ACSS2 (Homo sapiens, UniProt Q9NR19); test: cell-based
Method: (§1) ACSS2 Cellular Activity Assay (Cellular IC50)
(§2) The cellular activity of ACSS2 was based on tracing the incorporation of carbons from ^13C-Acetate into fatty-acids.
(§3) BT474/MDA-MB-468 cells growing in DMEM+25 mM D-glucose+1 mM sodium pyruvate+10% FBS+2 mM glutamine were plated in 12-well plates at 0.4×10^6 cells/well. The cells were then incubated at CO2 incubator for 24 hrs at hypoxic conditions (1% O2) before treated with compounds. At day 2, the medium was replaced to DMEM medium containing 15 mM Glucose, 1 mM Pyruvate, 0.65 mM Glutamine, 1% Dialyzed serum, 3.5 ug/ml Biotin, 0.2 mM ^13C-Acetate and various concentrations of the compounds. The cells were incubated for 5 hours at CO2 incubator in hypoxic conditions (1% O2). At the end of the 5 hours' incubation, the cells were washed twice with cold PBS, harvested in 1 ml PBS and transfer into V-shaped HPLC glass vials and centrifuge for 10 min at 600 g at 4 C. The supernatant was removed, and the cells' pellets were stored at −80° C. until taken for saponification.
(§4) The cells pellets were resuspended with 0.5 ml of the 90% Methanol, 10% H2O, 0.3M NaOH mixture and incubated at 80° C. for 60 min. Following the incubation, 50 μl formic acid and 0.4 ml hexane were added and the mixture was vortexed for 2 minutes. The vials were left few minutes for phases separation and then 200 μl of the top hexane phase extracted to a new glass vial. The hexane was dried under nitrogen and reconstituted in 100 μl of Methanol:Acetonitrile 5:3 mixture. The solution transferred to Eppendorf tubes, spun down at 17000 G for 20 min and transferred to LC-MS vials.
(§5) The analysis was performed with Thermo Q Exactive mass spectrometer with HESI probe and Dionex Ultimate 3000 UHPLC system. The separations were performed on Phenomenex Kintex 2.6u XB-C18 100A 150×2.10 mm column by injecting 5 ul of each sample. The chromatography started with a linear gradient from 85% to 100% of organic solvent (Methanol:Acetonitrile 1:1) versus 10 mM Ammonium Acetate buffer pH 4.7 for 3.5 minutes, followed by 4.5 minutes of isocratic 100% organic solvent and then 3 minutes of isocratic initial conditions, at a flow rate of 0.3 ul/min. The MS source conditions that were used: capillary temperature 325° C., sheath flow 25, aux flow 15, spray voltage 3.8 kV, aux temperature 300° C. The data collected from Negative ion mode at resolution of 70000 at Full-MS mode in 75-1000 m/z range.
(§6) The analysis of ^13C acetate incorporation into fatty acids (palmitate, myristate and stearate) performed on TraceFinder 3.2.512.0. The negative control areas and ^13C isotopic theoretical natural abundance were subtracted from the samples areas. Total ^13C incorporation for each fatty-acid (palmitate, myristate and stearate) was calculated and presented as percentage of the total amount.

ACSS2 [2] = target: T1, ACSS2; test: biochemical
ACSS2 [3] = target: T1, ACSS2; test: cell-based; remark: listed apart in the source
Method: Testing the inhibitory effect of compounds on the cellular activity of ACSS2 was done by tracing the incorporation of ^13C from ^13C-acetate into fatty-acids in MDA-MB-468 cells under hypoxic conditions of 1% 02. The assay was done for 5 hours in DMEM with 5.5 mM glucose, 1 mM sodium Pyruvate, 0.65 mM Glutamine, 3.5 ug/ml Biotin, 1% dialyzed serum, 0.5 mM 13C-acetate and with different concentrations of the inhibitors. At the end of the incubation, the cells were washed with cold PBS, harvested into glass tubes and undergo saponification. The level of ^13C incorporation into Palmitate was done by LC-MS analysis and the level of inhibition was calculated with PRISM software.

ACSS2 [4] = target: T1, ACSS2; test: cell-based; remark: listed apart in the source
Method: as §1, §2, §3, §4, §5, §6

T1 sequence (Q9NR19 whole entry): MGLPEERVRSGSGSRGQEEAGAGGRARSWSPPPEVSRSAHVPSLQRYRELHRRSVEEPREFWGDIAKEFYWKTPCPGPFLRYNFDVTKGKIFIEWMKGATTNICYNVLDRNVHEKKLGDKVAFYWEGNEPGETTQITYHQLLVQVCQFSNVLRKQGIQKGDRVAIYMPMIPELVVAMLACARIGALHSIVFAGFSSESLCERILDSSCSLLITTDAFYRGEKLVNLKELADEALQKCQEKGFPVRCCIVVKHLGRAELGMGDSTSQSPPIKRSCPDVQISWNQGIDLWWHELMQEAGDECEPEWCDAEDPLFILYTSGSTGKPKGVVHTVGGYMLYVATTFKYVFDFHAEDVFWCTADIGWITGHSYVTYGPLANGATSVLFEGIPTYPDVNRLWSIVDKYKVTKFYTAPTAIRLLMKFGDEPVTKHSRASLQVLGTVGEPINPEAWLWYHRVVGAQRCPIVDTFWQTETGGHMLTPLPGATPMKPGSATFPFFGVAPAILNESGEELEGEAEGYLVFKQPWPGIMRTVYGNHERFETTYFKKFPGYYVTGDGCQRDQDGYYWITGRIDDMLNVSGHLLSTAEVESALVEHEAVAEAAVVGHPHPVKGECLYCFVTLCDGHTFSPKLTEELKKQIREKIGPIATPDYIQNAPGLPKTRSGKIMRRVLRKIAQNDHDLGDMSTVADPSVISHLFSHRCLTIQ

| IC50 (ACSS2 [1]) | IC50 (ACSS2 [2]) | IC50 (ACSS2 [3]) | IC50 (ACSS2 [4]) | Structure (SMILES) |
| --- | --- | --- | --- | --- |
| 100 to 1000 nM | 0.01 to 6 nM | 0.5 to 50 nM | – | CC1=NN(c2ccccc2)C(=O)C1C(=O)Nc1cccc(C2CC2)c1 (stereo not shown) [compound 119, N-(3-cyclopropylphenyl)-3-methyl-5-oxo-1-phenyl-4,5-dihydro-1H-pyrazole-4-carboxamide] |
| 100 to 1000 nM | 6 to 100 nM | > 100 nM | 100 to 1000 nM | CC1=NN(c2ccccc2)C(=O)C1C(=O)Nc1cccc(-c2ncco2)c1 (stereo not shown) [compound 124, 3-methyl-N-(3-(oxazol-2-yl)phenyl)-5-oxo-1-phenyl-4,5-dihydro-1H-pyrazole-4-carboxamide] |
| 100 to 1000 nM | 0.01 to 6 nM | 50 to 100 nM | – | COC(=O)c1cccc(NC(=O)C2C(=O)N(c3ccccc3)N=C2C)c1 (stereo not shown) [compound 206, 3-(3-methyl-5-oxo-1-phenyl-4,5-dihydro-1H-pyrazole-4-carboxamido)benzoate] |
| – | 6 to 100 nM | > 100 nM | ≥ 1000 nM | CC1=NN(c2cccc(C(=O)O)c2)C(=O)C1C(=O)Nc1cccc(-c2ccco2)c1 (stereo not shown) [compound 159, 3-(4-((3-(furan-2-yl)phenyl)carbamoyl)-3-methyl-5-oxo-4,5-dihydro-1H-pyrazol-1-yl)benzoic acid] |
| – | 6 to 100 nM | 0.5 to 50 nM | 100 to 1000 nM | CCc1cccc(NC(=O)C2C(=O)N(c3ccc4c(c3)OCO4)N=C2C)c1 (stereo not shown) [compound 168] |
| 100 to 1000 nM | 6 to 100 nM | > 100 nM | 100 to 1000 nM | CCc1cccc(NC(=O)C2C(=O)N(c3ccc(OC(C)C)cc3)N=C2C)c1 (stereo not shown) [compound 142, N-(3-ethylphenyl)-1-(4-isopropoxyphenyl)-3-methyl-5-oxo-4,5-dihydro-1H-pyrazole-4-carboxamide] |
| 100 to 1000 nM | 0.01 to 6 nM | > 100 nM | < 100 nM | CC1=NN(c2ccccc2)C(=O)C1C(=O)Nc1cccc(C(=O)N(C)C)c1 (stereo not shown) [compound 220, N-(3-(dimethylcarbamoyl)phenyl)-3-methyl-5-oxo-1-phenyl-4,5-dihydro-1H-pyrazole-4-carboxamide] |
| 100 to 1000 nM | 6 to 100 nM | 0.5 to 50 nM | – | CCc1cccc(NC(=O)C2C(=O)N(c3ccc(OC)cc3)N=C2C)c1 (stereo not shown) [compound 138, N-(3-ethylphenyl)-1-(4-methoxyphenyl)-3-methyl-5-oxo-4,5-dihydro-1H-pyrazole-4-carboxamide] |
| < 100 nM and 100 to 1000 nM | 0.01 to 6 nM | 0.5 to 50 nM | – | CCC(=O)c1cccc(NC(=O)C2C(=O)N(c3ccccc3)N=C2C)c1 (stereo not shown) [compound 117, 3-methyl-5-oxo-1-phenyl-N-(3-propionylphenyl)-4,5-dihydro-1H-pyrazole-4-carboxamide] |
| – | 6 to 100 nM | > 100 nM | ≥ 1000 nM | CC1=NN(c2cccc(C(=O)O)c2)C(=O)C1C(=O)Nc1cccc(-c2cnccn2)c1 (stereo not shown) [compound 169] |
| – | 0.01 to 6 nM | 0.5 to 50 nM | < 100 nM | CC1=NN(c2cccc(C(F)(F)F)c2)C(=O)C1C(=O)Nc1cccc(-c2ccco2)c1 (stereo not shown) [compound 165] |
| < 100 nM | 0.01 to 6 nM | 0.5 to 50 nM | < 100 nM | CC1=NN(c2ccccc2)C(=O)C1C(=O)Nc1cccc(C(C)(F)F)c1 (stereo not shown) [compound 141, N-(3-(1,1-difluoroethyl)phenyl)-3-methyl-5-oxo-1-phenyl-4,5-dihydro-1H-pyrazole-4-carboxamide] |
| ≥ 1000 nM and 100 to 1000 nM | 6 to 100 nM | > 100 nM | – | CC1=NN(c2ccccc2)C(=O)C1C(=O)Nc1cccc(C(F)(F)F)c1 (stereo not shown) [compound 208, 3-methyl-5-oxo-1-phenyl-N-(3-(trifluoromethyl)phenyl)-4,5-dihydro-1H-pyrazole-4-carboxamide] |
| 100 to 1000 nM | 6 to 100 nM | – | – | CC1=NN(c2ccccc2)C(=O)C1C(=O)Nc1cccc(Br)c1 (stereo not shown) [compound 215, N-(3-bromophenyl)-3-methyl-5-oxo-1-phenyl-4,5-dihydro-1H-pyrazole-4-carboxamide] |
| ≥ 1000 nM and 100 to 1000 nM | 6 to 100 nM | 0.5 to 50 nM | 100 to 1000 nM | CC1=NN(c2ccccc2)C(=O)C1C(=O)Nc1cccc(-c2ncc[nH]2)c1 (stereo not shown) [compound 107, N-(3-(1H-imidazol-2-yl)phenyl)-3-methyl-5-oxo-1-phenyl-4,5-dihydro-1H-pyrazole-4-carboxamide] |
| 100 to 1000 nM | 6 to 100 nM | – | – | CCc1cccc(NC(=O)C2C(=O)N(c3ccccc3)N=C2C)c1 (stereo not shown) [compound 184, N-(3-ethylphenyl)-3-methyl-5-oxo-1-phenyl-4,5-dihydro-1H-pyrazole-4-carboxamide] |
| 100 to 1000 nM | 0.01 to 6 nM | 50 to 100 nM | – | CC1=NN(c2ccccc2)C(=O)C1C(=O)Nc1cccc(-c2cnccn2)c1 (stereo not shown) [compound 109, 3-methyl-5-oxo-1-phenyl-N-(3-(pyrazin-2-yl)phenyl)-4,5-dihydro-1H-pyrazole-4-carboxamide] |
| – | 0.01 to 6 nM | > 100 nM | < 100 nM (2×) and 100 nM to 1 µM | CC1=NN(c2cccc(C(F)(F)F)c2)C(=O)C1C(=O)Nc1cccc(-c2cnccn2)c1 (stereo not shown) [compound 166, 3-methyl-5-oxo-N-(3-(pyrazin-2-yl)phenyl)-1-(3-(trifuoromethyl)phenyl)-4,5-dihydro-1H-pyrazole-4-carboxamide] |

| Structure (SMILES) | IC50 (ACSS2 [1]) | IC50 (ACSS2 [2]) | IC50 (ACSS2 [3]) | IC50 (ACSS2 [4]) |
| --- | --- | --- | --- | --- |
| CC1=NN(c2ccccc2)C(=O)C1C(=O)Nc1cccc(-c2ccco2)c1 (stereo not shown) [compound 108, N-(3-(furan-2-yl)phenyl)-3-methyl-5-oxo-1-phenyl-4,5-dihydro-1H-pyrazole-4-carboxamide] | < 100 nM | 0.01 to 6 nM | 0.5 to 50 nM | < 100 nM |
